From patent US4703057A, “Beta-blocking thiochroman derivatives, compositions and method of use therefor” (ADIR Et Compagnie, priority 1985, dated 1987)
Several values for one entry are separate records, joined by “and”; a condition that tells them apart may be missing. Identical values can stand only once. Like-named read-outs stand apart in the source and are kept apart here.

Target: beta1 (right auricle of rats, stimulated by isoprenaline) (Rattus norvegicus, UniProt P18090)
Conditions: for log (x - 1): Van Rossum's table; for Kb: agonist isoprenaline; for type of antagonism towards isoprenaline: simple displacement of curves to the right
[1] = antagonist concentration 3 × 10^-8 M
[2] = antagonist concentration 3 × 10^-9 M
[3] = antagonist concentration 10^-8 M
[4] = pA2 (overall), n = 11, all antagonist concentrations
[5] = pA2, single preparation, antagonist concentration 10^-8 M

Chain of beta1 (right auricle of rats, stimulated by isoprenaline) (P18090 whole entry): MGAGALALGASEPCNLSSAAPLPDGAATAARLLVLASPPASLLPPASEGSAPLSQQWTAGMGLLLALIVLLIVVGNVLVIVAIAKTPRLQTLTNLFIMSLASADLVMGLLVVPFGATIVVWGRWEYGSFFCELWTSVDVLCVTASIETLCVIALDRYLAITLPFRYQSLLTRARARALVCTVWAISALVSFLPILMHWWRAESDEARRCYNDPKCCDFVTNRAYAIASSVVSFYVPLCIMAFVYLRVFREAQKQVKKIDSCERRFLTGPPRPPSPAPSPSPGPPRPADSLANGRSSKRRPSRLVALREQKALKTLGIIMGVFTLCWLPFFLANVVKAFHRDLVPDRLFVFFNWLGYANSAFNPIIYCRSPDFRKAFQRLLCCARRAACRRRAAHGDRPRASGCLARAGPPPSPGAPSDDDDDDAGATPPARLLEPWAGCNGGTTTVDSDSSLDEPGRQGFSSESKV

Row | x (displacement of the curve) [1] | log (x - 1) [1] | x (displacement of the curve) [2] | log (x - 1) [2] | x (displacement of the curve) [3] | log (x - 1) [3] | x (displacement of the curve) (antagonist concentration 10^-9 M) | Kb [4] | Kb (pA2, single preparation, antagonist concentration 3 × 10^-8 M) | Kb (pA2, single preparation, antagonist concentration 3 × 10^-9 M) | Kb [5] | times more powerful than propanolol (relative to propanolol) | type of antagonism towards isoprenaline | beta1-adrenolytic activity (pharmacological tests in vitro, in words) | beta1-adrenolytic / beta1-antagonistic activity relative to tertatolol (relative to tertatolol) | Structure (SMILES)
1 | 35 mm and 32.5 mm | 1.13 and 1.05 | 25.5 mm and 27 mm and 19.5 mm | 0.78 and 0.84 and 0.54 | 41 mm and 46 mm and 47 mm | 1.35 and 1.52 and 1.55 | 6 mm and 7 mm and 3.5 mm | 0.912 nM | 2.24 nM and 2.69 nM | 0.501 nM and 0.437 nM and 0.871 nM | 0.447 nM and 0.302 nM and 0.282 nM | 6 times | competitive type |  |  | CC(C)(C)NCC(O)COc1cccc2c1SCCC2 (centres unmarked) [Tertatolol, 1-tert.-butylamino-3-(8-thiochromanyloxy)-2-propanol]
2 |  |  |  |  | 37.5 mm and 38 mm and 31 mm | 1.22 and 1.24 and 0.99 |  | 0.575 nM |  |  | 0.603 nM and 0.575 nM and 1.02 nM |  | competitive type | very high beta1 -adrenolytic activity | twice that of tertatolol | CC(C)(C)NCC(O)COc1cccc2c1SCCC2O (centres unmarked) [Compound of the formula I, 1-tert.-butylamino-3-(4-hydroxy-8-thiochromanyloxy)-2-propanol]
